One test has as its target T1, αvβ6 (Homo sapiens, UniProt P06756+P18564).
T1 construct: HT-29 cells (American Type Culture Collection, Manassas, Va.), which naturally express αvβ6; endogenous in cells; host or cells: HT-29 (human colon adenocarcinoma, ATCC)
The experiment in a line: HT-29 cell adhesion assay for αvβ6 function. As to conditions: HT-29 cells, adhesion to human LAP. Format: cell-based. As to the method:
HT-29 Cell Adhesion Assay for αvβ6 Function.
Purified human LAP protein (R&D Systems, Inc) diluted to 0.2 μg/ml in TS buffer (25 mM Tris 7.4, 150 mM NaCl) was added to wells (100 μl/well) of a 96-well microtiter plate (Immulon 2HB 96-well; VWR Scientific) and incubated overnight at 4° C. The solution in each well was then replaced with 200 μl of blocking buffer (TS with 1% bovine serum albumin), and the plate incubated for 1 hr at 37° C. Compounds were diluted in test tubes to 2× the peak testing concentration in cell adhesion buffer consisting of Hanks Buffered Salts Solution (HBSS, cation-free, Sigma), 0.1% bovine serum albumin, 25 mM HEPES, and 200 μM MnCl2. […] The cells were washed with the cell adhesion buffer, counted using a hemocytometer, centrifuged and resuspended in cell adhesion buffer at 4×10^6 cells/ml. […] Remaining attached cells were detected by addition of 100 μl/well p-nitrophenylphosphate (Sigma) solution (15 mg tablet dissolved in 25 ml 50 mM NaAcetate, pH5; 0.5% Triton-X-100), incubation for 30 min at 37° C., and then addition of 50 μl/well 1N NaOH to stop the enzyme reaction. Plates were read by colorimetric detection at 405 nm wavelength using a Tecan Safire II plate reader. Concentration-response curves were constructed by non-linear regression (best fit) analysis, and IC50 values were calculated for each compound. […]

Test [1] addresses T2, recombinant human integrin αvβ1 (Homo sapiens, UniProt P05556+P06756).
T2 construct: purchased R&D Systems 6579-AV
The experiment in a line: Solid phase receptor assay for αvβ1 function. The conditions noted are these: purified integrin binding to fibronectin-coated plate.
Experimental: Purified human fibronectin (R&D Systems, Inc) diluted to 5 μg/ml in TBS buffer (25 mM Tris 7.4, 137 mM NaCl, 2.7 mM KCl, 1 mM CaCl2, 1 mM MgCl2, 1 mM MnCl2) was added to wells (50 μl/well) of a 96-well half-well transparent microtiter plate (Costar 3690), and incubated overnight at 4° C. Wells were washed 3 times with 150 μl TBS, and 150 μl of blocking buffer (TBS with 1% bovine serum albumin) were added. The plate was incubated for 1 hr at 37° C., and then washed 3× with TBS buffer. Purified recombinant human integrin αvβ1 (R&D Systems 6579-AV) was diluted to 2.0 μg/ml in TBS/0.1% bovine serum albumin. Compounds were diluted into the integrin solution and then 50 μl was added to empty wells of the washed fibronectin-coated plate, according to a standard template, with each sample repeated in triplicate. After incubation for one hour at room temperature, the plate was washed 3× with 150 μl of TBS buffer. To each well, 50 μl of 1 μg/ml biotinylated anti-alpha v antibody (R&D Systems) in TBS/0.1% BSA was added, and the plate was covered and incubated for 1 hr at room temperature. After washing the plate 3× with 150 μl of TBS buffer, 50 μl of streptavidin-conjugated horseradish peroxidase (R&D Systems) was added to the wells, and the plate incubated for 20 min at room temperature. […] Plates were read by colorimetric detection at 650 nm wavelength using a Tecan Safire II plate reader.

Test [2] relates to TGFβ activation by recombinant human integrin αvβ6. The test is described as follows: Integrin-mediated TGFβ activation assay (MLEC-PAI/L luciferase reporter co-cultured with SW480-β6 cells). The format is cell-based. As to conditions: MLEC-PAI/L reporter cells co-cultured overnight with SW480-β6 cells. As to the method: Integrin-Mediated TGFβ Activation Assay.
Mink lung epithelial cells stably transfected with a luciferase reporter driven by a portion of the TGFβ-responsive Plasminogen Activator Inhibitor promoter (MLEC-PAI/L) were seeded at a density of 25,000/well in a white-walled, clear-bottom 96-well culture plate (Costar 3610) in 100 μL of assay medium (phenol red-free DMEM+10% fetal bovine serum). The cells were incubated for one hour in ambient air at room temperature, then at 37° C. for three hours in 5% CO2 to allow cell attachment. The medium was aspirated from the wells and 50 μL of compound diluted to 2× in assay medium was applied to each well, followed by 50 μL of assay medium containing 25,000 SW480-β6 cells, a cell line which stably overexpresses recombinant human integrin αvβ6. […] Following overnight co-culture incubation under standard conditions, the assay medium was aspirated from the wells, and a foil seal was applied to the bottom of the plate to prevent cross-detection of luminescence between the sample wells. […] The assay plate was then read immediately on a luminometer. Data was analyzed by first subtracting the mean substrate blank value from all samples, then dividing by the mean value of the MLEC-PAI/L baseline group to yield a “relative luciferase activity” value (RLA). […]
A general note: A reporter such as luciferase makes a cellular process visible.

T1 sequence (P06756 31-889 limits assumed): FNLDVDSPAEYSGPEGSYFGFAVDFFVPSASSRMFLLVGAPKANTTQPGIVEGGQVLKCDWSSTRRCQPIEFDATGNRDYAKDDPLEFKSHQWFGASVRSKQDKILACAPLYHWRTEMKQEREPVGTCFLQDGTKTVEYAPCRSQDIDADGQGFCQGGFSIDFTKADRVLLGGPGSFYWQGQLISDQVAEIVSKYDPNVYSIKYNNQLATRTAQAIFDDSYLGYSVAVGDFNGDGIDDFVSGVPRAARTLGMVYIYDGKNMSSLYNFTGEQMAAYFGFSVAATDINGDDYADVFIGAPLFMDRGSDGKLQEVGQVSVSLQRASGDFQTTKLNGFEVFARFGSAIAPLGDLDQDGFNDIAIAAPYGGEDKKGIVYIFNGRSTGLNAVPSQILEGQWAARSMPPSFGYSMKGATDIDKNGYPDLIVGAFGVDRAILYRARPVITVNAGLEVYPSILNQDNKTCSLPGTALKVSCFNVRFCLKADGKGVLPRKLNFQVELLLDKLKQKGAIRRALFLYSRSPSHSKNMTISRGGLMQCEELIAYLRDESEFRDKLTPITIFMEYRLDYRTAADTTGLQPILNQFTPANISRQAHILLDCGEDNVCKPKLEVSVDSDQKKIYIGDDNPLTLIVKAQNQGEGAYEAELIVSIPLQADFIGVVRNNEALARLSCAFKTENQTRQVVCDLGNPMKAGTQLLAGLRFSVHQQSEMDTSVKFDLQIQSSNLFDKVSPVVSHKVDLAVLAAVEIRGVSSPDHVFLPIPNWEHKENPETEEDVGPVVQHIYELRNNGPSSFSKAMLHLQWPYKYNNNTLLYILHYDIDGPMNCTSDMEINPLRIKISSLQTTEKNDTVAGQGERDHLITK
T1 sequence (P06756 891-1048 partner limits assumed): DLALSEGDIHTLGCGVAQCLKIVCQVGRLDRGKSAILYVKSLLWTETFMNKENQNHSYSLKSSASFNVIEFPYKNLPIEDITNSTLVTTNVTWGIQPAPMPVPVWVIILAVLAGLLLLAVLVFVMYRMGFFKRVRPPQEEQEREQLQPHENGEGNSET
T1 sequence (P18564 22-788): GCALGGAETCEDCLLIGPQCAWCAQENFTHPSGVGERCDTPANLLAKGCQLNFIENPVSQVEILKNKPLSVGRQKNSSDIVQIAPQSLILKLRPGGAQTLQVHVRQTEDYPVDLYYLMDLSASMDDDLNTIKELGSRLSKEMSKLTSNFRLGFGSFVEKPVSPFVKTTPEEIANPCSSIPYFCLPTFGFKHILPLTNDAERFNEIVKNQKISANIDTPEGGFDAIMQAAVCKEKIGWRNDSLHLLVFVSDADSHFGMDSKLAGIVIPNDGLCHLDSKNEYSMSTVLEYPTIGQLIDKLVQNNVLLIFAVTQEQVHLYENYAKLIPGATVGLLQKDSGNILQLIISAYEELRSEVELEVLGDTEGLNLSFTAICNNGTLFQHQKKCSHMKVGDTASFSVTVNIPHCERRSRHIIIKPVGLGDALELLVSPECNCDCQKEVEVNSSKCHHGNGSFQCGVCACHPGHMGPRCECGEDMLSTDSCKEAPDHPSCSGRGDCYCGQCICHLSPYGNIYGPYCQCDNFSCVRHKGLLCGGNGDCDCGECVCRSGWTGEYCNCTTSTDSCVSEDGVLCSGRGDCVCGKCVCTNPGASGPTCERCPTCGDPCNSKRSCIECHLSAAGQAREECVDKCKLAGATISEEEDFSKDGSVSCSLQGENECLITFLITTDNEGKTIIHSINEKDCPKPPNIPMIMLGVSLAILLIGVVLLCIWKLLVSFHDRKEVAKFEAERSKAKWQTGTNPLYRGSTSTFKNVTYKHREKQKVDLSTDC
T2 sequence (P06756 31-889 limits assumed): as the sequence (P06756 31-889 limits assumed) above
T2 sequence (P06756 891-992 partner limits assumed): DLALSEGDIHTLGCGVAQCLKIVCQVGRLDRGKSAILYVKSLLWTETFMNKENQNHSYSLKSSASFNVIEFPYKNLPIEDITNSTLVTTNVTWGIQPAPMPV
T2 sequence (P05556 21-728 limits assumed): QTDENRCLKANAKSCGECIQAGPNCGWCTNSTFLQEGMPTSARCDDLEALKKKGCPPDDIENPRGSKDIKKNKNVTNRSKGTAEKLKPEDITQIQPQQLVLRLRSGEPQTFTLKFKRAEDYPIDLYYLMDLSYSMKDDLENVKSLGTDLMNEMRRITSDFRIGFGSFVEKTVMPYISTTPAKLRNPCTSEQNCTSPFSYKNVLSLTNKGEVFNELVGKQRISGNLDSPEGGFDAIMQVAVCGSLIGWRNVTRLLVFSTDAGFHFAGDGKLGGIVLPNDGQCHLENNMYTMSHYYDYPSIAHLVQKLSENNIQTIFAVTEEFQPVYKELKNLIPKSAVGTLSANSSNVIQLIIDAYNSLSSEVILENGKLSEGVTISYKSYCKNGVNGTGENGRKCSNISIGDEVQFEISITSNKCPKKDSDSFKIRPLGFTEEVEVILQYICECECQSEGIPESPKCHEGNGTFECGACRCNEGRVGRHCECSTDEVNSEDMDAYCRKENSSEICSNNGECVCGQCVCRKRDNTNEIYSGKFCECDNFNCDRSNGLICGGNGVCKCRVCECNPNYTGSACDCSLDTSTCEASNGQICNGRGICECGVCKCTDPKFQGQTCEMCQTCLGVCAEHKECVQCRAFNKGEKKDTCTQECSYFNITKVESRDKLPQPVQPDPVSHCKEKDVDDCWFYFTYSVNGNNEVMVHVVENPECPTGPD

In general, IC50 refers to the midpoint of a concentration-inhibition curve. `CC(C)(C)c1cc(Br)cc([C@H](CC(=O)O)NC(=O)CNC(=O)c2cc(O)cc(NC3=NCC(O)CN3)c2)c1` (stereo partly drawn) [Example 1, (3S)—N-[3-hydroxy-5-[(1,4,5,6-tetrahydro-5-hydroxy-2-pyrimidinyl)amino]benzoyl]glycyl-3-(3-bromo-5-tert-butylphenyl)-β-alanine]: the IC50 is 1.5 nM against αvβ6, 2.5 nM in test [1] and 564 nM in test [2].

The values are drawn from US8716226B2, “3,5 phenyl-substituted beta amino acid derivatives as integrin antagonists” (Saint Louis University, priority 2012, dated 2014).
